These results are taken from ChEMBL document CHEMBL1148759, “Isolation, characterization, and biological evaluation of syn and anti diastereomers of [(99m)Tc]technetium depreotide: a somatostatin receptor binding tumor imaging agent” (J Med Chem, 2007).

Where a SMILES comes first, the peptide text is derived from it. [ ]: non-standard residue; d: D form. The star is where a group is joined. X1 = NCCCC[C@H](NC(=O)[C@H](CS)NC(=O)[C@H](CCCCN)NC(=O)[C@@H](N)CNC(=O)C*)C(N)=O; NMeF = CN[C@@H](Cc1ccccc1)C(=O)O; hCys = N[C@@H](CCS)C(=O)O

This test can be described thus: Displacement of [125I]somatostatin from SSTR in rat AR42J cells. Format: cell-based. The conditions noted are these: ar-42j.

Regarding `CC(C)[C@@H]1NC(=O)[C@H](CCCCN)NC(=O)[C@@H](Cc2c[nH]c3ccccc23)NC(=O)[C@H](Cc2ccc(O)cc2)NC(=O)[C@H](Cc2ccccc2)N(C)C(=O)[C@H](CCSCC(=O)NC[C@H](N)C(=O)N[C@@H](CCCCN)C(=O)N[C@@H](CS)C(=O)N[C@@H](CCCCN)C(N)=O)NC1=O` [DEPREOTIDE] (cyclo([hCys](X1)[NMeF]Y[dW]KV)), the IC50 (usually the point on the concentration scale where inhibition reaches its midpoint) was determined as 7.4 nM.
